Experimental data reported in patent US20090170762A1, “Treatment of Diabetes Related Obesity” (UUTech Limited, priority 2005, published 2009).
Ends that are not written are not given here. * marks the point of attachment. Palmitoyl = CCCCCCCCCCCCCCCC(=O)*

Key:
[1] = target: DPP-IV (Homo sapiens, UniProt P27487); assay: Degradation of GIP and Glu3-substituted GIP analogs by DPP-IV (HPLC); assay type: in vitro ADME; details: for half-life at 2 μm: DPP-IV enzyme (5 mU) in buffer, pH 7.8, incubation with DPP-IV, unit not given (time points in hrs), read-out: Estimated Half-Life (converted); for Intact Peptide Remaining (%) 0 hrs. / remaining at 2 h, 2 μm / remaining at 4 h, 2 μm / remaining at 8 h, 2 μm: incubation with DPP-IV (5 mU), 37°C; for Intact Peptide Remaining (%) 0 hrs.: pH 7.8, 0 hrs; for remaining at 2 h, 2 μm / remaining at 4 h, 2 μm / remaining at 8 h, 2 μm: isolated DPP-IV enzyme (5 mU); for remaining at 2 h, 2 μm: pH 7.8, 2 hrs, read-out: Intact Peptide Remaining (%) 2 hrs.; for remaining at 4 h, 2 μm: pH 7.8, 4 hrs, read-out: Intact Peptide Remaining (%) 4 hrs.; for remaining at 8 h, 2 μm: pH 7.8, 8 hrs, read-out: Intact Peptide Remaining (%) 8 hrs.
Sequence of DPP-IV (P27487 whole entry, species assumed): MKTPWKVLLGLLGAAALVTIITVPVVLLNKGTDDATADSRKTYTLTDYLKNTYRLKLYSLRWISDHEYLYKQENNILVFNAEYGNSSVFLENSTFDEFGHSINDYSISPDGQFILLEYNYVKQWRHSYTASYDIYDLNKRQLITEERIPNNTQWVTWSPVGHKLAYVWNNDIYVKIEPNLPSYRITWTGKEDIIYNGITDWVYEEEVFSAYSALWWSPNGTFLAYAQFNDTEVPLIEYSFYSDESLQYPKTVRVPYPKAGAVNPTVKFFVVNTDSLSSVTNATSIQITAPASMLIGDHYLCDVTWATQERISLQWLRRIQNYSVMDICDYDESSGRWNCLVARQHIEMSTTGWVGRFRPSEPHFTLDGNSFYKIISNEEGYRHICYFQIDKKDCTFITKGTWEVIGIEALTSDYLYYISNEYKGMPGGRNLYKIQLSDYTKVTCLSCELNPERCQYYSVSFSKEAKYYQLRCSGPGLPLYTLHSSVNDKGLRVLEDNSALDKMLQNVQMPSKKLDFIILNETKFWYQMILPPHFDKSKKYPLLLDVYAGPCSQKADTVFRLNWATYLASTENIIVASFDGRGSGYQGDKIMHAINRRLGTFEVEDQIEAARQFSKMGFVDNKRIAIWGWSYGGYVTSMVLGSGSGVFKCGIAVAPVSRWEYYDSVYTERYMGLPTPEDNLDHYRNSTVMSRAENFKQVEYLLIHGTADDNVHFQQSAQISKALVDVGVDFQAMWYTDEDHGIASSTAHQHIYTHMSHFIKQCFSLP

[2] = target: T1, human GIP-R (Homo sapiens, UniProt P48546); assay: Cyclic AMP production in GIP-R transfected CHL cells; assay type: cell-based; details: for inhibition of GIP-stimulated cAMP production: in presence of GIP (10^-7 m)
T1 construct: expressed in transfected cells; host or cells: Chinese Hamster Lung (CHL) fibroblast cells, stably transfected
T1 sequence (P48546 22-466): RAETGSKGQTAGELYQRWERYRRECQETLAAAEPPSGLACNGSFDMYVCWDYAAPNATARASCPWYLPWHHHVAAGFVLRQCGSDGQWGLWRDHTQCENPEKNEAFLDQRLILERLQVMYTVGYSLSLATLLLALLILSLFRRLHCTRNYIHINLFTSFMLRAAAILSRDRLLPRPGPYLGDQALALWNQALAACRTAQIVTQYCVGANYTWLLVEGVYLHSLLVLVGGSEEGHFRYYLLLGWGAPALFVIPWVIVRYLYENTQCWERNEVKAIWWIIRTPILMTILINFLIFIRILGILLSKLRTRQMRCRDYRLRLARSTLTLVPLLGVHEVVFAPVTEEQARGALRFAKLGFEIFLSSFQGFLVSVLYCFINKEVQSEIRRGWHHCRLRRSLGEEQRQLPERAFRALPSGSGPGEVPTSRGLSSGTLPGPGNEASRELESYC
Experimental: Tissue Culture. […] (v/v) fetal bovine serum, 1% (v/v) antibiotics (100 U/ml penicillin, 0.1 mg/ml streptomycin) (all from Gibco, Paisley, Strathclyde, Scotland). BRIN-BD11 cells were cultured in RPMI-1640 tissue culture medium containing 10% (v/v) fetal bovine serum, 1% (v/v) antibiotics (100 U/ml penicillin, 0.1 mg/ml streptomycin) and 11.1 mm glucose. The origin and secretory characteristics of these cells have been described in detail previously (McClenaghan, N. H. et al., 1996, Diabetes 45:1132-1140). The cells were maintained in sterile tissue culture flasks (Corning Glass Works, Sunderland, UK) at 37° C. in an atmosphere of 5% CO2 and 95% air using a LEEC incubator (Laboratory Technical Engineering, Nottingham, UK).
Methods. […] The culture medium was removed and cells subsequently washed twice with 2 ml ice-cold HBS buffer (130 mm NaCl, 20 mm HEPES, 0.9 mm NaHPO4, 0.8 mm MgSO4, 5.4 mm KCl, 1.8 mm CaCl2, 5.6 mm glucose and 25 μm phenol red) (pH 7.4). […] The medium was subsequently removed and the cells lysed with […] of lysing solution (5% TCA, 3% SDS, 92% H2O, also containing 0.1 mm unlabelled cAMP and 0.1 mm unlabelled ATP) (Sigma, Poole, Dorset, UK). The plates were then left on a shaker at room temperature for 30 minutes and tritiated cAMP formation determined by column chromatography using Dowex and alumina ion exchange columns (BioRad Life Science Research, Alpha Analytical, Larne, UK) as previously described (Gault, V. A. et al 2002, Biochem. J. 367:913-920).

[3] = system: BRIN-BD11 cells; assay: Insulin secretion from BRIN-BD11 cells; assay type: cell-based; details: for Maximal insulin response (% GIP max) / Insulin response in presence of 10^-7 M GIP (% GIP max): BRIN-BD11 cells, 5.6 mm glucose; for Maximal insulin response (% GIP max): 20 min; for Insulin response in presence of 10^-7 M GIP (% GIP max): in presence of 10^-7 M native GIP
Experimental: Tissue Culture. Chinese Hamster Lung (CHL) fibroblast cells stably transfected with the human GIP-R were cultured in DMEM tissue culture medium containing 10%. (v/v) fetal bovine serum, 1% (v/v) antibiotics (100 U/ml penicillin, 0.1 mg/ml streptomycin) (all from Gibco, Paisley, Strathclyde, Scotland). BRIN-BD11 cells were cultured in RPMI-1640 tissue culture medium containing 10% (v/v) fetal bovine serum, 1% (v/v) antibiotics (100 U/ml penicillin, 0.1 mg/ml streptomycin) and 11.1 mm glucose. The origin and secretory characteristics of these cells have been described in detail previously (McClenaghan, N. H. et al., 1996, Diabetes 45:1132-1140). The cells were maintained in sterile tissue culture flasks (Corning Glass Works, Sunderland, UK) at 37° C. in an atmosphere of 5% CO2 and 95% air using a LEEC incubator (Laboratory Technical Engineering, Nottingham, UK).
Methods. Insulin release from BRIN-BD11 cells was determined by use of cell monolayers as described previously (Gault, V. A. et al. 2002, Biochem. J. 367:913-920). In brief, BRIN-BD11 cells were seeded into 24-well plates (Nunc, Roskilde, Denmark) at a density of 1.5×10^5 cells per well and allowed to attach overnight in RPMI-1640 culture medium at 37° C. Acute tests for insulin secretion were preceded by 40 minutes pre-incubation at 37° C. in 1.0 ml Krebs Ringer Bicarbonate Buffer (KRBB, 115 mm NaCl, 4.7 mm KCl, 1.28 mm CaCl2, 1.2 mM MgSO4, 1.2 mm KH2PO4, 25 mM HEPES and 10 mm NaHCO3; pH 7.4 with NaOH) supplemented with 0.1% (w/v) BSA and 1.1 mM glucose. […] After 20 minutes incubation, the buffer was removed and used for measurement of insulin by radioimmunoassay (Flatt, P. R. and Bailey, C. J., 1981, Diabetologia 5:573-577).

[4] = system: ob/ob mice; assay: 14 once-daily injections of GIP analogues in ob/ob mice; assay type: in vivo, mouse; details: 14 days daily, insulin 50 U/kg
Experimental: (§1) Animals. Obese diabetic (ob/ob) mice derived from the colony maintained at Aston University, UK (Bailey C. J. et al., 1982, Int. J. Obes. 6:11-21) were used at 14-18 weeks of age. Animals were age-matched, divided into groups and housed individually in an air-conditioned room at 22±2° C. with a 12 hour light: 12 hour dark cycle (08:00-20:00 hr). Drinking water and a standard rodent maintenance diet (Trouw Nutrition, Cheshire, UK) were freely available. All animal experiments were carried out in accordance with the UK Animals (Scientific Procedures) Act 1986.
Methods. […] Intraperitoneal glucose tolerance (18 mmol/kg body wt) and insulin sensitivity (50 U/kg body wt) tests were performed at the end of the study period. Blood samples taken from the cut tip of the tail vein of conscious mice at the times indicated in the Figures were immediately centrifuged using a Beckman microcentrifuge (Beckman Instruments, UK) for 30 seconds at 13,000×g. The resulting plasma was then aliquoted into fresh Eppendorf tubes and stored at −20° C. prior to glucose and insulin determinations.

[5] = system: ob/ob mice; assay: Acute antihyperglycaemic and insulin releasing activity with glucose and native GIP in ob/ob mice; assay type: in vivo, mouse; details: 25 nmol/kg i.p. with GIP and glucose 18 mmol/kg, vs native GIP
Experimental: as §1
Biochemical analysis. Plasma glucose was assayed by an automated glucose oxidase procedure ([…]) using a Beckman Glucose Analyzer II (Beckman Instruments, Galway, Ireland). Plasma insulin was assayed by radioimmunoassay.
Methods. […] All test solutions were administered in a final volume of 5 ml/kg body weight. Blood samples were collected from the cut tip of the tail vein of conscious mice into chilled fluoride/heparin coated glucose microcentrifuge tubes (Sarstedt, Numbrecht, Germany) immediately prior to injection and at 15, 30 and 60 minutes post injection. Blood samples were immediately centrifuged using a Beckmnan microcentrifuge (Beckman Instruments, High Wycombe, Buckinghamshire, UK) for 30 seconds at 13,000×g. Plasma glucose was assayed using a Beckman Glucose Analyzer n (Beckman Instruments, High Wycombe, Buckinghamshire, UK) (Stevens, J. F., 1971, Clin. Chim. Acta 32:199-201) and plasma insulin was determined by RIA (Flatt, P. R. and Bailey, C. J., 1981, Diabetologia 5:573-577). All animal studies were carried out in accordance with the UK Animals (Scientific Procedures) Act 1986.

Row | Substance | half-life at 2 μm [1] | Intact Peptide Remaining (%) 0 hrs. [1] | remaining at 2 h, 2 μm [1] | remaining at 4 h, 2 μm [1] | remaining at 8 h, 2 μm [1] | EC50 [2] | cAMP response in presence of 10^-7 M GIP (% GIP max) ([2]; in presence of 10^-7 M native GIP) | inhibition of GIP-stimulated cAMP production [2] | Maximal insulin response (% GIP max) [3] | Insulin response in presence of 10^-7 M GIP (% GIP max) [3] | hypoglycemic action of insulin [4] | remaining activity at 0.1 µM ([2]; CHL, read-out: cAMP response in presence of 10^-7 M GIP (% GIP max)) | effect on GIP-stimulated insulin secretion ([3]; in presence of GIP (10^-7 m)) | plasma glucose and insulin profiles when administered together with native GIP [5]
1 | YAPGTFISDYSIAMDK(Palmitoyl)IHQQDFVNWLLAQKGKKNDWKHNITQ [(Pro^3)LysPAL^16GIP] | > 8 h | 100% | 100% | 100% | 100% | 870 nM | 63 ± 5 % GIP max | similarly inhibited | 48 ± 4 % GIP max | 61 ± 3 % GIP max | significantly augmented |  |  | 
2 | YAYGTFISDYSIAMDKIHQQDFVNWLLAQKGKKNDWKHNITQ [(Tyr^3)GIP] | 1.5 h | 100% | 34.1 ± 4.1% | 6.3 ± 3.1% | 0% | 1.5 nM |  | did not significantly inhibit | 75 ± 4 % GIP max | 93 ± 2 % GIP max |  | 76 ± 4% | did not significantly affect | significantly inhibited the action of GIP
